System: T47D
Assay: Cytotoxicity against human T47D cells at 10 uM after 48 hrs by coulter counter analysis
Type: functional
Settings: read-out: GI
Molecule O=C(O)c1cccnc1Sc1nc2ccc(Cl)cc2c(=O)n1Cc1ccccc1 has an inhibition of growth at 10 µM of 14.1%.

System: Hs-578T
Assay: Cytotoxicity against human Hs578T cells at 10 uM after 48 hrs by coulter counter analysis
Type: functional
Settings: read-out: GI
Molecule O=C(O)c1cccnc1Sc1nc2ccc(Cl)cc2c(=O)n1Cc1ccccc1 has an inhibition of growth at 10 µM of under 10%.

System: MCF7
Assay: Cytotoxicity against human MCF7 cells at 10 uM after 48 hrs by coulter counter analysis
Type: functional
Settings: MCF7, 48 h, read-out: GI
O=C(O)c1cccnc1Sc1nc2ccc(Cl)cc2c(=O)n1Cc1ccccc1 showed an inhibition of growth at 10 µM of under 10%.

System: MDA-MB-231
Assay: Cytotoxicity against human MDA-MB-231 cells at 10 uM after 48 hrs by coulter counter analysis
Type: functional
Settings: MDA-MB-231, 48 h, read-out: GI
Molecule O=C(O)c1cccnc1Sc1nc2ccc(Cl)cc2c(=O)n1Cc1ccccc1 has an inhibition of growth at 10 µM of 24.7%.

System: PC-3
Assay: Cytotoxicity against human PC3 cells at 10 uM after 48 hrs by coulter counter analysis
Type: functional
Settings: PC-3, 48 h, read-out: GI
Work on O=C(O)c1cccnc1Sc1nc2ccc(Cl)cc2c(=O)n1Cc1ccccc1 yielded an inhibition of growth at 10 µM of 25.2%.

System: UO-31
Assay: Cytotoxicity against human UO31 cells at 10 uM after 48 hrs by coulter counter analysis
Type: functional
Settings: UO-31, 48 h, read-out: GI
Molecule O=C(O)c1cccnc1Sc1nc2ccc(Cl)cc2c(=O)n1Cc1ccccc1 has an inhibition of growth at 10 µM of 20.3%.

System: RXF 393
Assay: Cytotoxicity against human RXF393 cells at 10 uM after 48 hrs by coulter counter analysis
Type: functional
Settings: RXF 393, 48 h, read-out: GI
With O=C(O)c1cccnc1Sc1nc2ccc(Cl)cc2c(=O)n1Cc1ccccc1 the inhibition of growth at 10 µM was under 10%.

System: SN12C
Assay: Cytotoxicity against human SN12C cells at 10 uM after 48 hrs by coulter counter analysis
Type: functional
Settings: read-out: GI
With O=C(O)c1cccnc1Sc1nc2ccc(Cl)cc2c(=O)n1Cc1ccccc1 the inhibition of growth at 10 µM was under 10%.

System: A498
Assay: Cytotoxicity against human A498 cells at 10 uM after 48 hrs by coulter counter analysis
Type: functional
Settings: A498, 48 h, read-out: GI
O=C(O)c1cccnc1Sc1nc2ccc(Cl)cc2c(=O)n1Cc1ccccc1 showed an inhibition of growth at 10 µM of under 10%.

System: CAKI-1
Assay: Cytotoxicity against human Caki1 cells at 10 uM after 48 hrs by coulter counter analysis
Type: functional
Settings: CAKI-1, 48 h, read-out: GI
Work on O=C(O)c1cccnc1Sc1nc2ccc(Cl)cc2c(=O)n1Cc1ccccc1 yielded an inhibition of growth at 10 µM of 30.3%.

System: not listed separately
Assay: Cytotoxicity against human NCI-ADR-RES cells at 10 uM after 48 hrs by coulter counter analysis
Type: functional
Settings: read-out: GI
For O=C(O)c1cccnc1Sc1nc2ccc(Cl)cc2c(=O)n1Cc1ccccc1, the inhibition of growth at 10 µM was under 10%.

System: OVCAR-4
Assay: Cytotoxicity against human OVCAR4 cells at 10 uM after 48 hrs by coulter counter analysis
Type: functional
Settings: OVCAR-4, 48 h, read-out: GI
O=C(O)c1cccnc1Sc1nc2ccc(Cl)cc2c(=O)n1Cc1ccccc1 showed an inhibition of growth at 10 µM of 20.6%.

System: UACC-62
Assay: Cytotoxicity against human UACC62 cells at 10 uM after 48 hrs by coulter counter analysis
Type: functional
Settings: UACC-62, 48 h, read-out: GI
O=C(O)c1cccnc1Sc1nc2ccc(Cl)cc2c(=O)n1Cc1ccccc1 gave an inhibition of growth at 10 µM of 16.7%.

System: IGROV-1
Assay: Cytotoxicity against human IGROV1 cells at 10 uM after 48 hrs by coulter counter analysis
Type: functional
Settings: IGROV-1, 48 h, read-out: GI
In the case of O=C(O)c1cccnc1Sc1nc2ccc(Cl)cc2c(=O)n1Cc1ccccc1, the inhibition of growth at 10 µM is reported as 14.7%.

System: SK-MEL-5
Assay: Cytotoxicity against human SK-MEL-5 cells at 10 uM after 48 hrs by coulter counter analysis
Type: functional
Settings: SK-MEL-5, 48 h, read-out: GI
O=C(O)c1cccnc1Sc1nc2ccc(Cl)cc2c(=O)n1Cc1ccccc1 showed an inhibition of growth at 10 µM of under 10%.

System: Malme-3M
Assay: Cytotoxicity against human MALME-3M cells at 10 uM after 48 hrs by coulter counter analysis
Type: functional
Settings: read-out: GI
Work on O=C(O)c1cccnc1Sc1nc2ccc(Cl)cc2c(=O)n1Cc1ccccc1 yielded an inhibition of growth at 10 µM of under 10%.

System: MDA-MB-435
Assay: Cytotoxicity against human MDA-MB-435 cells at 10 uM after 48 hrs by coulter counter analysis
Type: functional
Settings: MDA-MB-435, 48 h, read-out: GI
With O=C(O)c1cccnc1Sc1nc2ccc(Cl)cc2c(=O)n1Cc1ccccc1 the inhibition of growth at 10 µM was under 10%.

System: SNB-75
Assay: Cytotoxicity against human SNB75 cells at 10 uM after 48 hrs by coulter counter analysis
Type: functional
Settings: SNB-75, 48 h, read-out: GI
O=C(O)c1cccnc1Sc1nc2ccc(Cl)cc2c(=O)n1Cc1ccccc1 showed an inhibition of growth at 10 µM of 18.4%.

System: LOX IMVI
Assay: Cytotoxicity against human LOXIMVI cells at 10 uM after 48 hrs by coulter counter analysis
Type: functional
Settings: read-out: GI
In the case of O=C(O)c1cccnc1Sc1nc2ccc(Cl)cc2c(=O)n1Cc1ccccc1, the inhibition of growth at 10 µM is reported as 13.6%.

System: SNB-19
Assay: Cytotoxicity against human SNB19 cells at 10 uM after 48 hrs by coulter counter analysis
Type: functional
Settings: SNB-19, 48 h, read-out: GI
Molecule O=C(O)c1cccnc1Sc1nc2ccc(Cl)cc2c(=O)n1Cc1ccccc1 has an inhibition of growth at 10 µM of under 10%.

System: NCI-H522
Assay: Cytotoxicity against human NCI-H522 cells at 10 uM after 48 hrs by coulter counter analysis
Type: functional
Settings: NCI-H522, 48 h, read-out: GI
Molecule O=C(O)c1cccnc1Sc1nc2ccc(Cl)cc2c(=O)n1Cc1ccccc1 has an inhibition of growth at 10 µM of 13.1%.

System: SF-295
Assay: Cytotoxicity against human SF295 cells at 10 uM after 48 hrs by coulter counter analysis
Type: functional
Settings: SF-295, 48 h, read-out: GI
With O=C(O)c1cccnc1Sc1nc2ccc(Cl)cc2c(=O)n1Cc1ccccc1 the inhibition of growth at 10 µM was 15.7%.

System: NCI-H23
Assay: Cytotoxicity against human NCI-H23 cells at 10 uM after 48 hrs by coulter counter analysis
Type: functional
Settings: NCI-H23, 48 h, read-out: GI
Work on O=C(O)c1cccnc1Sc1nc2ccc(Cl)cc2c(=O)n1Cc1ccccc1 yielded an inhibition of growth at 10 µM of under 10%.

System: not listed separately
Assay: Cytotoxicity against human EKVX cells at 10 uM after 48 hrs by coulter counter analysis
Type: functional
Settings: read-out: GI
O=C(O)c1cccnc1Sc1nc2ccc(Cl)cc2c(=O)n1Cc1ccccc1 showed an inhibition of growth at 10 µM of 25.4%.

System: NCI-H226
Assay: Cytotoxicity against human NCI-H226 cells at 10 uM after 48 hrs by coulter counter analysis
Type: functional
Settings: NCI-H226, 48 h, read-out: GI
Work on O=C(O)c1cccnc1Sc1nc2ccc(Cl)cc2c(=O)n1Cc1ccccc1 yielded an inhibition of growth at 10 µM of 18.4%.

System: A549
Assay: Cytotoxicity against human A549/ATCC cells at 10 uM after 48 hrs by coulter counter analysis
Type: functional
Settings: A549, 48 h, read-out: GI
Molecule O=C(O)c1cccnc1Sc1nc2ccc(Cl)cc2c(=O)n1Cc1ccccc1 has an inhibition of growth at 10 µM of under 10%.

System: RPMI-8226
Assay: Cytotoxicity against human RPMI8226 cells at 10 uM after 48 hrs by coulter counter analysis
Type: functional
Settings: RPMI-8226, 48 h, read-out: GI
Work on O=C(O)c1cccnc1Sc1nc2ccc(Cl)cc2c(=O)n1Cc1ccccc1 yielded an inhibition of growth at 10 µM of 16.3%.

System: SR
Assay: Cytotoxicity against human SR cells at 10 uM after 48 hrs by coulter counter analysis
Type: functional
Settings: read-out: GI
O=C(O)c1cccnc1Sc1nc2ccc(Cl)cc2c(=O)n1Cc1ccccc1 gave an inhibition of growth at 10 µM of 32.8%.

System: MOLT-4
Assay: Cytotoxicity against human MOLT4 cells at 10 uM after 48 hrs by coulter counter analysis
Type: functional
Settings: MOLT-4, 48 h, read-out: GI
For O=C(O)c1cccnc1Sc1nc2ccc(Cl)cc2c(=O)n1Cc1ccccc1, the inhibition of growth at 10 µM was 16.7%.

System: CCRF-CEM
Assay: Cytotoxicity against human CCRF-CEM cells at 10 uM after 48 hrs by coulter counter analysis
Type: functional
Settings: read-out: GI
With O=C(O)c1cccnc1Sc1nc2ccc(Cl)cc2c(=O)n1Cc1ccccc1 the inhibition of growth at 10 µM was 17.8%.

System: HL-60(TB)
Assay: Cytotoxicity against human HL-60(TB) cells at 10 uM after 48 hrs by coulter counter analysis
Type: functional
Settings: HL-60, 48 h, read-out: GI
O=C(O)c1cccnc1Sc1nc2ccc(Cl)cc2c(=O)n1Cc1ccccc1 gave an inhibition of growth at 10 µM of under 10%.

System: Pseudomonas aeruginosa
Assay: Antimicrobial activity against Pseudomonas aeruginosa at 200 ug after 24 hrs by agar disc diffusion method
Type: functional
Settings: read-out: DIZ
Work on O=C(O)c1cccnc1Sc1nc2ccc(Cl)cc2c(=O)n1Cc1ccccc1 yielded a zone of inhibition at 200 µg/disc of 8 mm.

System: Escherichia coli
Assay: Antimicrobial activity against Escherichia coli at 200 ug after 24 hrs by agar disc diffusion method
Type: functional
Settings: read-out: DIZ
Molecule O=C(O)c1cccnc1Sc1nc2ccc(Cl)cc2c(=O)n1Cc1ccccc1 has a zone of inhibition at 200 µg/disc of 8 mm.

System: Micrococcus luteus
Assay: Antimicrobial activity against Micrococcus luteus at 200 ug after 24 hrs by agar disc diffusion method
Type: functional
Settings: read-out: DIZ
O=C(O)c1cccnc1Sc1nc2ccc(Cl)cc2c(=O)n1Cc1ccccc1 showed a zone of inhibition at 200 µg/disc of 8 mm.

System: Bacillus subtilis
Assay: Antimicrobial activity against Bacillus subtilis at 200 ug after 24 hrs by agar disc diffusion method
Type: functional
Settings: read-out: DIZ
In the case of O=C(O)c1cccnc1Sc1nc2ccc(Cl)cc2c(=O)n1Cc1ccccc1, the zone of inhibition at 200 µg/disc is reported as 18 mm.

Target: T1, Dihydrofolate reductase (Bos taurus, UniProt P00376)
T1 sequence (P00376 whole entry): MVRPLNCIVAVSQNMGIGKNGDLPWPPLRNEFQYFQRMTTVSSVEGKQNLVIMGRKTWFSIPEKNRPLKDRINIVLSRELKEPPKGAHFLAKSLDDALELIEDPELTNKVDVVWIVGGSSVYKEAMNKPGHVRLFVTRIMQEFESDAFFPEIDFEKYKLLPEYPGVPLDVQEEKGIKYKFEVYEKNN
Assay: Inhibition of bovine DHFR after 2 mins by spectrophotometry
Settings: not given
In the case of O=C(O)c1cccnc1Sc1nc2ccc(Cl)cc2c(=O)n1Cc1ccccc1, the IC50 is reported as 10 µM.

System: Staphylococcus aureus
Assay: Antimicrobial activity against Staphylococcus aureus at 200 ug after 24 hrs by agar disc diffusion method
Type: functional
Settings: read-out: DIZ
O=C(O)c1cccnc1Sc1nc2ccc(Cl)cc2c(=O)n1Cc1ccccc1 gave a zone of inhibition at 200 µg/disc of 14 mm.

Source: ChEMBL document CHEMBL2375290, “Nonclassical antifolates, part 3: synthesis, biological evaluation and molecular modeling study of some new 2-heteroarylthio-quinazolin-4-ones” (Eur J Med Chem, 2013)
